Source: US11208412B2 (DAEGU-GYEONGBUK MEDICAL INNOVATION FOUNDATION, priority 2017, dated 2021)

Legend:
Experiment in all cases: Kinase selectivity, DiscoverX scanMAX Kinase assay panel (% control)
Assay type in all cases: binding
[1] = molecular target: T1, kinases of the scanMAX Kinase assay panel (Homo sapiens, UniProt Q9Y463); conditions: DYRK1B; 1 uM
T1 construct: purchased DiscoverX Co. (contract measurement) scanMAX Kinase assay panel
Summary of the method: (§1)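 Compounds tested at 1 uM against the scanMAX kinase panel. Signal expressed as % control = (compound − positive control)/(DMSO negative control − positive control) × 100, where positive control = 0% and DMSO = 100%; below 35% counted as activity on that kinase.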

[2] = molecular target: T2, kinases of the scanMAX Kinase assay panel (Homo sapiens, UniProt Q9HC98); conditions: NEK6; 1 uM
T2 construct: purchased DiscoverX Co. (contract measurement) scanMAX Kinase assay panel
Summary of the method: as §1

[3] = molecular target: T3, kinases of the scanMAX Kinase assay panel (Homo sapiens, UniProt O15197); conditions: EPHB6; 1 uM
T3 construct: purchased DiscoverX Co. (contract measurement) scanMAX Kinase assay panel
T3 sequence (O15197 32-1021): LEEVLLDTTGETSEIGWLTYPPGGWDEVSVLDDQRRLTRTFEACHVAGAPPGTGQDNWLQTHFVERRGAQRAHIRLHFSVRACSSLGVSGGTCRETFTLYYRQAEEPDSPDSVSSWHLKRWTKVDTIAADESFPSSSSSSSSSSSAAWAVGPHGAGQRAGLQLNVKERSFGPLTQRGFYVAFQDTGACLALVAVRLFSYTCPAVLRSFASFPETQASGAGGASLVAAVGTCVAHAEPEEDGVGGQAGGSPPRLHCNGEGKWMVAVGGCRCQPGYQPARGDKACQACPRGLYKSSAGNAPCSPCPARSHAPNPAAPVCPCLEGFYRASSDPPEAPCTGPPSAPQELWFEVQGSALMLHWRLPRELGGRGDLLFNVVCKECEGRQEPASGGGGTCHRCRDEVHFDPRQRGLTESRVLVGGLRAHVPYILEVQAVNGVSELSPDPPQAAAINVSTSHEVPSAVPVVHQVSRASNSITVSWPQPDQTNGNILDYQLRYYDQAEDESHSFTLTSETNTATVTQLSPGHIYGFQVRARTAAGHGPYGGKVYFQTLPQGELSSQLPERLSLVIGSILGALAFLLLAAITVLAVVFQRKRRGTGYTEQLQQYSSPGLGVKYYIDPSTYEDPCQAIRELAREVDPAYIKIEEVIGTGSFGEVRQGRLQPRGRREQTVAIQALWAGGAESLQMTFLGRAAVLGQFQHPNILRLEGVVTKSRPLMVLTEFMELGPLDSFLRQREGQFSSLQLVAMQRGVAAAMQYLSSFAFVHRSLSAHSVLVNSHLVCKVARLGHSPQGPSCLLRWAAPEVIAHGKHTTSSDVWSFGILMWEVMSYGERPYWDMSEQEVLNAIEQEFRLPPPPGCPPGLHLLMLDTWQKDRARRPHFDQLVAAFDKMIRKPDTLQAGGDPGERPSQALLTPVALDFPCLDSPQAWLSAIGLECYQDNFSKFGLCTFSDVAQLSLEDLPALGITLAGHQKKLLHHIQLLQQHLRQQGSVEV
Summary of the method: as §1

[4] = molecular target: T4, kinases of the scanMAX Kinase assay panel (Homo sapiens, UniProt P15056); conditions: BRAF; 1 uM
T4 construct: purchased DiscoverX Co. (contract measurement) scanMAX Kinase assay panel
Summary of the method: as §1

[5] = molecular target: T5, kinases of the scanMAX Kinase assay panel (Homo sapiens, UniProt Q9Y2H9); conditions: MAST1; 1 uM
T5 construct: purchased DiscoverX Co. (contract measurement) scanMAX Kinase assay panel
Summary of the method: as §1

[6] = molecular target: T6, kinases of the scanMAX Kinase assay panel (Homo sapiens, UniProt O14920); conditions: IKK-beta; 1 uM
T6 construct: purchased DiscoverX Co. (contract measurement) scanMAX Kinase assay panel
T6 sequence (O14920 1-756): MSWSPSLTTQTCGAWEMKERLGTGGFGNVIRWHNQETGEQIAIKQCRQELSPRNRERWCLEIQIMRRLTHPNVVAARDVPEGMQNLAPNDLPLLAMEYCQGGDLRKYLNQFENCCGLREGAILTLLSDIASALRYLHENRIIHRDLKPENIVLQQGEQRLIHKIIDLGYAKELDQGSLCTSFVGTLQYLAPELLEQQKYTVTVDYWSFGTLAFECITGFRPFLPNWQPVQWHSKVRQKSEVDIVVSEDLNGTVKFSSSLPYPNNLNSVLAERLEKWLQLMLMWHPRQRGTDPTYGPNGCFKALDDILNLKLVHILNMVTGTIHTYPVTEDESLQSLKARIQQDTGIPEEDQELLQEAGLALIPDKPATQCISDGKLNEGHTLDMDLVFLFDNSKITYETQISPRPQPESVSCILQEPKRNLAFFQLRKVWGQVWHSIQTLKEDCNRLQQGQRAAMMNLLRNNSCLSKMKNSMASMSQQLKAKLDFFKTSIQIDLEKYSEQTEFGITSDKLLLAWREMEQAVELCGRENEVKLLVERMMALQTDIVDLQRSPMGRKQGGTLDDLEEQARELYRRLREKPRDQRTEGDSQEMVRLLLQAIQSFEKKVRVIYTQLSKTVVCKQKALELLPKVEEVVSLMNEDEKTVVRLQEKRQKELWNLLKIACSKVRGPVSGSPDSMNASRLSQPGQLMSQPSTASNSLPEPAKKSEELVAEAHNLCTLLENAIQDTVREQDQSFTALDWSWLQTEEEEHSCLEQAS
Summary of the method: as §1

[7] = molecular target: T7, kinases of the scanMAX Kinase assay panel (Homo sapiens, UniProt P42336, E545A); conditions: PIK3CA(E545A); 1 uM
T7 construct: purchased DiscoverX Co. (contract measurement) scanMAX Kinase assay panel
Summary of the method: as §1

[8] = molecular target: T8, kinases of the scanMAX Kinase assay panel (Homo sapiens, UniProt P29376); conditions: LTK; 1 uM
T8 construct: purchased DiscoverX Co. (contract measurement) scanMAX Kinase assay panel
Summary of the method: as §1

[9] = molecular target: T9, kinases of the scanMAX Kinase assay panel (Homo sapiens, UniProt P35590); conditions: kinase TIE1; 1 uM in DMSO
T9 construct: purchased DiscoverX Co. (contract measurement) scanMAX Kinase assay panel
Summary of the method: as §1

T1 sequence (Q9Y463 whole entry): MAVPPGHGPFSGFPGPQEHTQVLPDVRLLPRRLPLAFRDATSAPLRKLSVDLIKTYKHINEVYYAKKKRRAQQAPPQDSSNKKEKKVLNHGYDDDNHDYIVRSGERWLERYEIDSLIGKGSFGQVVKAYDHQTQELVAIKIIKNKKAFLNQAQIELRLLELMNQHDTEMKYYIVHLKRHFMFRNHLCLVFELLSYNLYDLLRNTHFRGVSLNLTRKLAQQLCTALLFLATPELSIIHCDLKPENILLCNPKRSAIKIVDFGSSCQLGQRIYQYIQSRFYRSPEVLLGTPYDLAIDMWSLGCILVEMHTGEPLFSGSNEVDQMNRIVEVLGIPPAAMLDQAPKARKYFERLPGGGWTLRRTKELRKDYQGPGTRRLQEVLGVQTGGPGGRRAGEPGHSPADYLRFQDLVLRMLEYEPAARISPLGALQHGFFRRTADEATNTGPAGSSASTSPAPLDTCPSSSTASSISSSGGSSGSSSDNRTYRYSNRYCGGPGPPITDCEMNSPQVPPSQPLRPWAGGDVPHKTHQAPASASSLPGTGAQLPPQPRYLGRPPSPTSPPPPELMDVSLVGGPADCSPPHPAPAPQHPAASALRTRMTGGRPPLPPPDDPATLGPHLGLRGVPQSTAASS
T8 sequence (P29376 17-864): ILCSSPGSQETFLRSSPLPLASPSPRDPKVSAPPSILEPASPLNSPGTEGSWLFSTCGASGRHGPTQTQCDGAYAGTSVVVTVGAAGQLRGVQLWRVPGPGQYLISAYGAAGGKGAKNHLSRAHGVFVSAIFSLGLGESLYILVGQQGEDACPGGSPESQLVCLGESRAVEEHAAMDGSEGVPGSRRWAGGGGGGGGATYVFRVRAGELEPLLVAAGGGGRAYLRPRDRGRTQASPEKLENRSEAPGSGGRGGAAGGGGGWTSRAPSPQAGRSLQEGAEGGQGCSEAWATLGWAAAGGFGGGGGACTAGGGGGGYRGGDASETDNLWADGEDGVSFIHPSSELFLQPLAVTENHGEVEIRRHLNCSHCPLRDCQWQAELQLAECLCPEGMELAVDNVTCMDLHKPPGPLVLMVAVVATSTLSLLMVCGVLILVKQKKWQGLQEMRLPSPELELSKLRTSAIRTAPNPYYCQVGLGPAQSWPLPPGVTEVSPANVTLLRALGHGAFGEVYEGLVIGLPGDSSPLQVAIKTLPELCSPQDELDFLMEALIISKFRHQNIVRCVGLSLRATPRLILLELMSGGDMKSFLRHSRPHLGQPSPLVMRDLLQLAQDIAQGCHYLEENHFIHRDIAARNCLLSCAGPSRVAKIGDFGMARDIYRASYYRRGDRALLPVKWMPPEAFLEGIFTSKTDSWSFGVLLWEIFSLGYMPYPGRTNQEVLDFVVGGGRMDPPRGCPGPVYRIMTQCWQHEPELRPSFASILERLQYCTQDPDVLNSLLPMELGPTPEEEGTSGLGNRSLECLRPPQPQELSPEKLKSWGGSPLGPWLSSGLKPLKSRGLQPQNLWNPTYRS
T9 sequence (P35590 22-1138): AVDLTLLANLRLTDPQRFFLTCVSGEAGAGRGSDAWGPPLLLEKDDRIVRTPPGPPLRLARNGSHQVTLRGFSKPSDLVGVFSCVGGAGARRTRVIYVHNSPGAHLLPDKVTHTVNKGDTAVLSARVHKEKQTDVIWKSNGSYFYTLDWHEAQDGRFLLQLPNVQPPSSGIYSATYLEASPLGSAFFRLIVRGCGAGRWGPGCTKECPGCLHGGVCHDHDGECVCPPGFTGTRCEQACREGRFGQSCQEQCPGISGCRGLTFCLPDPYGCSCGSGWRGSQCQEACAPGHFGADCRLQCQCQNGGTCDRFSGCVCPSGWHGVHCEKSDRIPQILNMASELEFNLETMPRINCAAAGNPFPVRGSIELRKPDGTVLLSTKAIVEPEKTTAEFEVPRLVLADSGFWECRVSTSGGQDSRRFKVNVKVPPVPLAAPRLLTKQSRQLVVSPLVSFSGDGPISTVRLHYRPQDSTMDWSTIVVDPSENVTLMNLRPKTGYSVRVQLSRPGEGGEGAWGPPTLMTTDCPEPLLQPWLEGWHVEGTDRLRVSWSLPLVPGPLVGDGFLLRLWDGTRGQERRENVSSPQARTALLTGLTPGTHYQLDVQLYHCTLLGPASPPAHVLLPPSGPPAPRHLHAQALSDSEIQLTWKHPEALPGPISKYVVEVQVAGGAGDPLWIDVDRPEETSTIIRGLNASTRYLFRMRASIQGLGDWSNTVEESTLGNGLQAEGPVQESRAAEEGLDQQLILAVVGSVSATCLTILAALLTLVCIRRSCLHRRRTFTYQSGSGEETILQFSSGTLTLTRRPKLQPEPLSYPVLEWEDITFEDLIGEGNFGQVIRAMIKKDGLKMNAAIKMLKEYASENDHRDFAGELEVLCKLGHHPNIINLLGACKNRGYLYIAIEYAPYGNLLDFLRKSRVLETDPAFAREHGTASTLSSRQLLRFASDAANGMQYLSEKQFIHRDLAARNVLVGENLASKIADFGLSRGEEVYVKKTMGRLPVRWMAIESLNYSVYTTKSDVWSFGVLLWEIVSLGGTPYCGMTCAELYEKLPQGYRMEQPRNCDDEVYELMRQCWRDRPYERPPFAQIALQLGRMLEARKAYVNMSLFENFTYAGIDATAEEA
T7 sequence (P42336 whole entry E545A): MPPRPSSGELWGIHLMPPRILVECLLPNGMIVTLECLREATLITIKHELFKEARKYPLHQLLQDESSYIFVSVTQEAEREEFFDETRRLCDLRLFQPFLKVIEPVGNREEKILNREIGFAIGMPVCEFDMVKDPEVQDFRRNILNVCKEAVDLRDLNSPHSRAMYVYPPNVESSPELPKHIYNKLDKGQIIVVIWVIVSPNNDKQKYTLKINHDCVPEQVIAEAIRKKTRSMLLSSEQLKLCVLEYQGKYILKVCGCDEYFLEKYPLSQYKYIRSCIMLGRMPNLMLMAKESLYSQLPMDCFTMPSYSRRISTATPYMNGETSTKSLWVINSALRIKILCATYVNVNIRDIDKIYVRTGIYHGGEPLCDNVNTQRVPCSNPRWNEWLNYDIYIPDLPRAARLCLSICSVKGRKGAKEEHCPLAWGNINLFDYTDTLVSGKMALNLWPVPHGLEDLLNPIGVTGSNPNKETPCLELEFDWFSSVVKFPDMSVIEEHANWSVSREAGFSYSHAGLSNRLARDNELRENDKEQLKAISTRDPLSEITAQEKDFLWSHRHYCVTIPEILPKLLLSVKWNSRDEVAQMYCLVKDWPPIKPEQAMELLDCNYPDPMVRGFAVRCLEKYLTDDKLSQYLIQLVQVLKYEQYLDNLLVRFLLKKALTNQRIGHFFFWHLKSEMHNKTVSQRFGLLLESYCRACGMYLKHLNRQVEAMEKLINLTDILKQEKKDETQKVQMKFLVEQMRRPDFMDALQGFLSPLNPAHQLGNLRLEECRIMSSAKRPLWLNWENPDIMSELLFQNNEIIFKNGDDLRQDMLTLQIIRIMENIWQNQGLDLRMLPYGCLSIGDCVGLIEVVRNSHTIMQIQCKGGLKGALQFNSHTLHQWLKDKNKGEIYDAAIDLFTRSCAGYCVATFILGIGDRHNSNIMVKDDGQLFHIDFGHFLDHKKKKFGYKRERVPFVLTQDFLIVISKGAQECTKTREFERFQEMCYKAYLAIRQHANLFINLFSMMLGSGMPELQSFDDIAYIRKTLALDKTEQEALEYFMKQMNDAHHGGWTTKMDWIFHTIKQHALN
T2 sequence (Q9HC98 whole entry): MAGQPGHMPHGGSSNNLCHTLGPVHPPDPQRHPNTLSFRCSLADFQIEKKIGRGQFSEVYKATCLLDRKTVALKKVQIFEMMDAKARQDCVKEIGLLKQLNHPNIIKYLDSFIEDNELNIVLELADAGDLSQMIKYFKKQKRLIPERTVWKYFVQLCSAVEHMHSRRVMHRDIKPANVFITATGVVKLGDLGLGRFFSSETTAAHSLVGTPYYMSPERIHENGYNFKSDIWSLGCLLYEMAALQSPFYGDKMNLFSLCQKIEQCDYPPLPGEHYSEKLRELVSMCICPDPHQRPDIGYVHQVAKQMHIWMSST
T4 sequence (P15056 whole entry): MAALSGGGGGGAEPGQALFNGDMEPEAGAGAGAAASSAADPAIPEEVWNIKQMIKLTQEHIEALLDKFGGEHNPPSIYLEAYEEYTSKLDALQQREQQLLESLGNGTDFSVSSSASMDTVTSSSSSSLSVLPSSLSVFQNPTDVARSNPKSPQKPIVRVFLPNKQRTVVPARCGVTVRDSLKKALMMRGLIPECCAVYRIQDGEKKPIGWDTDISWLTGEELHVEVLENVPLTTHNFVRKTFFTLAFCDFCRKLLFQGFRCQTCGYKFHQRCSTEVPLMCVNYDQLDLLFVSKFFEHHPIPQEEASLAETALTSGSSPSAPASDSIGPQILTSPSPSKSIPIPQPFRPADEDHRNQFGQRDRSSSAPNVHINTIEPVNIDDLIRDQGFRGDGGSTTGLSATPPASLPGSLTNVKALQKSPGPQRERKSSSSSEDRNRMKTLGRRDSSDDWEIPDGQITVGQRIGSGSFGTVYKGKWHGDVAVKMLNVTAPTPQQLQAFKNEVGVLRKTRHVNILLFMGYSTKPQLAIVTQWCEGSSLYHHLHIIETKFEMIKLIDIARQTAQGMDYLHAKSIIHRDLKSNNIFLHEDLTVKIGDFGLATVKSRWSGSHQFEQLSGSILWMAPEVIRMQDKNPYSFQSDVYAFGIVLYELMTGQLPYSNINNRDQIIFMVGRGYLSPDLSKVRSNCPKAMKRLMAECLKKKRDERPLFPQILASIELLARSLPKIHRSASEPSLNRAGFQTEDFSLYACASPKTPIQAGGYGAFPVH

Row | Compound | remaining binding at 1 µM [1] [%] | remaining binding at 1 µM [2] [%] | remaining binding at 1 µM [3] [%] | remaining binding at 1 µM [4] [%] | remaining binding at 1 µM [5] [%] | remaining binding at 1 µM [6] [%] | remaining binding at 1 µM [7] [%] | remaining binding at 1 µM [8] [%] | remaining binding at 1 µM [9] [%]
1 | CCNc1nc(Nc2ccc(C(=O)N3CCC(N4CCOCC4)CC3)cc2OC)nc2[nH]cc(C(F)(F)F)c12 [Example 104, (4-((4-(ethylamino)-5-(trifluoromethyl)-7H-pyrrolo[2,3-d]pyrimidine-2-yl)amino)-3-methoxyphenyl)(4-morpholinopiperidine-1-yl)methanone] | 0 | 100 | 95 | 100 | 72 | 92 | 90 | 3.7 | 100
2 | CC1(Nc2nc(Nc3cnn([C@H]4CCN(C5COC5)C[C@@H]4F)c3Cl)nc3[nH]cc(C#N)c23)CC1 [Example 52, 2-((5-chloro-1-((3S,4S)-3-fluoro-1-(oxetane-3-yl)piperidine-4-yl)-1H-pyrazole-4-yl)amino)((1-methylcyclopropyl)amino)-7H-pyrrolo[2,3-d]pyrimidine-5-carbonitrile] | 0.55 | 93 | 3.7 | 99 | 74 | 9.7 | 71 | 3.4 | 19
3 | CNc1nc(Nc2ccc(C(=O)N3CCOCC3)cc2OC)nc2[nH]cc(C#N)c12 [Example 1, 2-((2-methoxy-4-(morpholine-4-carbonyl)phenyl)amino)-4-(methylamino)-7H-pyrrolo[2,3-d]pyrimidine-5-carbonitrile] | 13 | 95 | 84 | 69 | 100 | 75 | 94 | 6.8 | 96
